Test results: patent publication US8106212B2, “Substituted enaminocarbonyl compounds” (Bayer Cropscience AG, priority 2006, dated 2012)

Assays:
Format in all cases: in vivo
[1] = system: larvae of the banded cucumber beetle (Diabrotica balteata); test: Diabrotica balteata test, larvae in soil (DIABBA); settings: 2 ppm in soil (mg/l), efficacy calculated from emerged maize plants
Procedure: [table] To produce a suitable preparation of active compound, 1 part by weight of active compound is mixed with the stated amounts of solvent and emulsifier, and the concentrate is diluted with water to the desired concentration. The active compound preparation is mixed with soil. The stated concentration refers to the amount of active compound per volume unit of soil (mg/l=ppm). The treated soil is filled into pots, and 5 maize corns are placed into each pot. 3 days after sowing, larvae of the banded cucumber beetle (Diabrotica balteata) are placed into the treated soil. After the desired period of time, the kill in % is determined. The efficacy is calculated from the number of maize plants that have emerged.

Boophilus microplus = Boophilus microplus test (BOOPMI injection); settings: 20 μg/Tier injected into abdomen, 100% = no tick has laid fertile eggs
Procedure: [table] To produce a suitable preparation of active compound, 1 part by weight of active compound is mixed with the stated amounts of solvent, and the concentrate is diluted with solvent to the desired concentration. The solution of active compound is injected into the abdomen (Boophilus microplus), and the animals are transferred into dishes and kept in a temperature-controlled room. After the desired period of time, the effect in % is determined. 100% means that no tick has laid any fertile eggs.

[2] = system: green peach aphid (Myzus persicae); test: Myzus persicae test, hydroponic treatment (MYZUPE sys.); settings: 4 ppm in water (mg/l), pea plant
Procedure: [table] To produce a suitable preparation of active compound, 1 part by weight of active compound is mixed with the stated amounts of solvent and emulsifier, and the concentrate is diluted with water to the desired concentration. The preparation of active compound is mixed with water. The stated concentration refers to the amount of active compound per volume unit of water (mg/l=ppm). The treated water is filled into containers housing a pea plant (Pisum sativum) which is then infected with the green peach aphid (Myzus persicae). After the desired period of time, the kill in % is determined. 100% means that all aphids have been killed; 0% means that none of the aphids have been killed.

[3] = system: green peach aphid (Myzus persicae); test: Myzus test (MYZUPE spray treatment); settings: Chinese cabbage discs sprayed
Procedure: [table] To produce a suitable preparation of active compound, 1 part by weight of active compound is mixed with the stated amounts of solvent and emulsifier, and the concentrate is diluted with emulsifier-containing water to the desired concentration. Discs of Chinese cabbage (Brassica pekinensis) which are infected by all stages of the green peach aphid (Myzus persicae) are sprayed with a preparation of active compound of the desired concentration. After the desired period of time, the effect in % is determined. 100% means that all aphids have been killed; 0% means that none of the aphids have been killed. [table] To produce a suitable preparation of active compound, 1 part by weight of active compound is mixed with the stated amounts of solvent and emulsifier, and the concentrate is diluted with emulsifier-containing water to the desired concentration. Discs of Chinese cabbage (Brassica pekinensis) which are infected by all stages of the green peach aphid (Myzus persicae) are sprayed with a preparation of active compound of the desired concentration. After the desired period of time, the effect in % is determined. 100% means that all aphids have been killed; 0% means that none of the aphids have been killed.

[4] = system: larvae of the mustard beetle (Phaedon cochleariae); test: Phaedon test (PHAECO spray treatment); settings: 500 g/ha, Chinese cabbage discs sprayed
Procedure: [table] To produce a suitable preparation of active compound, 1 part by weight of active compound is mixed with the stated amounts of solvent and emulsifier, and the concentrate is diluted with emulsifier-containing water to the desired concentration. Discs of Chinese cabbage (Brassica pekinensis) are sprayed with a preparation of active compound of the desired concentration and, after drying, populated with larvae of the mustard beetle (Phaedon cochleariae). After the desired period of time, the effect in % is determined. 100% means that all beetle larvae have been killed; 0% means that none of the beetle larvae have been killed.

[5] = system: adult fleas (Ctenocephalides felis); test: Ctenocephalides felis; oral (CTECFE); settings: 4 ppm in citrated cattle blood
Procedure: [table] To produce a suitable preparation of active compound, 1 part by weight of active compound is mixed with the stated amount of solvent. Part of the concentrate is diluted with citrated cattle blood, and the desired concentration is prepared. 20 unfed adult fleas (Ctenocephalides felis) are placed into a chamber whose top and bottom ends are closed with gauze. A metal cylinder whose bottom end is closed with parafilm is placed onto the chamber. The cylinder contains the blood/active compound preparation, which can be taken up by the fleas through the parafilm membrane. The blood is warmed to 37° C., but the flea chamber is at room temperature. After the desired period of time, the kill in % is determined. 100% means that all fleas have been killed; 0% means that none of the fleas have been killed.

[6] = system: cotton aphid (Aphis gossypii); test: Aphis gossypii test (APHIGO), leaf dip; settings: 0.8 ppm, cotton leaves dipped
Procedure: [table] To produce a suitable preparation of active compound, 1 part by weight of active compound is mixed with the stated amounts of solvent and emulsifier, and the concentrate is diluted with emulsifier-containing water to the desired concentration. Cotton leaves (Gossypium hirsutum) which are heavily infested by the cotton aphid (Aphis gossypii) are treated by being dipped into the preparation of active compound of the desired concentration. After the desired period of time, the kill in % is determined. 100% means that all aphids have been killed; 0% means that none of the aphids have been killed.

[7] = system: green peach aphid (Myzus persicae); test: Myzus test; oral (MYZUPE O); settings: 0.0064 ppm, oral uptake by sucking
Procedure: Myzus Test; Oral; (MYZUPE O) Solvent: 80 parts by weight of acetone To produce a suitable preparation of active compound, 1 part by weight of active compound is mixed with the stated amounts of solvent, and the concentrate is diluted with water to the desired concentration. Containers are populated with all stages of the green peach aphid (Myzus persicae), treatment is by sucking at the preparation of active compound of the desired concentration. After the desired period of time, the effect in % is determined. 100% means that all aphids have been killed; 0% means that none of the aphids have been killed.

Meloidogyne incognita = test: Meloidogyne test (MELGIN spray treatment); settings: 4 ppm, nematicidal activity by formation of galls on lettuce roots (100% = no galls)
Procedure: [table] To produce a suitable preparation of active compound, 1 part by weight of active compound is mixed with the stated amounts of solvent, and the concentrate is diluted with water to the desired concentration. Containers are filled with sand, active compound solution, Meloidogyne incognita egg/larvae suspension and lettuce seeds. The lettuce seeds germinate and the plants develop. On the roots, galls are formed. After the desired period of time, the nematicidal activity is determined by the formation of galls in %. 100% means that no galls were found; 0% means that the number of galls on the treated plants corresponds to that of the untreated controls.

Lucilia cuprina larvae = test: Lucilia cuprina test (LUCICU); settings: 4 ppm, treated horse meat
Procedure: [table] To produce a suitable preparation of active compound, 1 part by weight of active compound is mixed with the stated amounts of solvent, and the concentrate is diluted with water to the desired concentration. Containers containing horse meat treated with the preparation of active compound of the desired concentration are populated with Lucilia cuprina larvae. After the desired period of time, the kill in % is determined. 100% means that all larvae have been killed; 0% means that none of the larvae have been killed.

[8] = 4 g/ha, Biological Examples table
[9] = 20 g/ha, Biological Examples table
[10] = 100 g/ha, Biological Examples table

## CN(Cc1cnc(Cl)c(F)c1)C1=CC(=O)OC1 [Example 1, 4-[[(6-Chloro-5-fluoropyridin-3-yl)methyl](methyl)amino]furan-2(5H)-one]
[1]
  Kill rate in % after 10 days: 100%
Boophilus microplus
  Kill rate in % after 7 days: 30%

## CON(Cc1cnc(Cl)c(Cl)c1)C1=CC(=O)OC1 [Example 2, 4-[[(5,6-Dichloropyridin-3-yl)methyl](methoxy)amino]furan-2(5H)-one]
Boophilus microplus
  Kill rate in % after 7 days: 30%

## O=C1C=C(N(Cc2cnc(Cl)c(I)c2)C2CC2)CO1 [Example 3, 4-[[(6-Chloro-5-iodopyridin-3-yl)methyl](cyclopropyl)amino]furan-2(5H)-one]
Boophilus microplus
  Kill rate in % after 7 days: 40%

## CN(Cc1cnc(Br)c(Cl)c1)C1=CC(=O)OC1 [Example 4, 4-[[(6-Bromo-5-chloropyridin-3-yl)methyl](methyl)amino]furan-2(5H)-one]
[2]
  Kill rate in % after 5 days: 100%

## CN(Cc1cnc(Cl)nc1)C1=CC(=O)OC1 [Example 5, 4-[[(2-Chloropyrimidin-5-yl)methyl](methyl)amino]furan-2(5H)-one]
[3]; [8]
  Kill rate in % after 5 days: 100%

## O=C1C=C(N(Cc2cnc(Cl)nc2)C2CC2)CO1 [Example 6, 4-[[(2-Chloropyrimidin-5-yl)methyl](cyclopropyl)amino]furan-2(5H)-one]
[3]; [9]
  Kill rate in % after 5 days: 100%

## CC1OC(=O)C=C1N(C)Cc1cnc(Cl)c(Cl)c1 (centres unmarked) [Example 7, 4-[[(5,6-dichloropyridin-3-yl)methyl](methyl)amino]-5-methylfuran-2(5H)-one]
[3]; [10]
  Kill rate in % after 5 days: 90%

## CN(Cc1cnc(Cl)c(Cl)c1)C1=C(Cl)C(=O)OC1 [Example 8, 3-Chloro-4-[[(5,6-dichloropyridin-3-yl)methyl](methyl)amino]furan-2(5H)-one]
[3]; [10]
  Kill rate in % after 5 days: 80%

## CN(Cc1cnc(Cl)c(Cl)c1)C1=CC(=O)OC1 [Example 10, 4-[[(5,6-dichloropyridin-3-yl)methyl](methyl)amino]furan-2(5H)-one]
[3]; [8]
  Kill rate in % after 5 days: 100%
[3]; 20 g/ha, comparative table
  Kill rate in % after 5 days: 100%
[4]
  Kill rate in % after 7 days: 100%

## O=C1C=C(N(Cc2cnc(Cl)c(Cl)c2)C2CC2)CO1 [Example 11]
[3]; [8]
  Kill rate in % after 5 days: 100%
[3]; 100 g/ha, comparative table
  Kill rate in % after 5 days: 100%
[4]
  Kill rate in % after 7 days: 100%
[5]
  Kill rate in % after 2 days: 50%
Boophilus microplus
  Kill rate in % after 7 days: 50%

## Cc1cc(CN(C2=CC(=O)OC2)C2CC2)cnc1Cl [Example 12]
[6]
  Kill rate in % after 6 days: 50%

## Cc1cc(CN(C)C2=CC(=O)OC2)cnc1Cl [Example 13]
[7]
  Kill rate in % after 5 days: 70%

## CN(Cc1cnc(Cl)c(Br)c1)C1=CC(=O)OC1 [Example 14]
[3]; [9]
  Kill rate in % after 5 days: 100%

## O=C1C=C(N(Cc2cnc(Cl)c(Br)c2)C2CC2)CO1 [Example 15]
Meloidogyne incognita
  Kill rate in % after 14 days: 70%
[6]
  Kill rate in % after 6 days: 40%

## CCN(Cc1cnc(Cl)c(Cl)c1)C1=CC(=O)OC1 [Example 16]
[3]; [9]
  Kill rate in % after 5 days: 100%

## O=C1C=C(N(Cc2cnc(Cl)c(Cl)c2)C2CC2)CC1 [Example 17]
[3]; [10]
  Kill rate in % after 5 days: 100%

## CN(Cc1cnc(Cl)c(C#N)c1)C1=CC(=O)OC1 [Example 18]
[3]; [10]
  Kill rate in % after 5 days: 100%

## CN(Cc1cnc(Cl)c(I)c1)C1=CC(=O)OC1 [Example 19]
[3]; [9]
  Kill rate in % after 5 days: 70%

## CCN(Cc1cnc(Cl)c(C)c1)C1=CC(=O)OC1 [Example 20]
Boophilus microplus
  Kill rate in % after 7 days: 30%

## O=C1C=C(N(Cc2cnc(Br)c(Br)c2)C2CC2)CO1 [Example 21]
[3]; [9]
  Kill rate in % after 5 days: 80%

## CN(Cc1cnc(Br)c(Br)c1)C1=CC(=O)OC1 [Example 22]
[2]
  Kill rate in % after 5 days: 100%

## O=C1C=C(N(Cc2cnc(Br)c(Cl)c2)C2CC2)CO1 [Example 23]
Boophilus microplus
  Kill rate in % after 7 days: 30%

## CN(Cc1cnc(Br)c(F)c1)C1=CC(=O)OC1 [Example 24]
[2]
  Kill rate in % after 5 days: 100%
[3]; [8]
  Kill rate in % after 5 days: 100%

## O=C1C=C(N(Cc2cnc(Br)c(F)c2)C2CC2)CO1 [Example 25]
[3]; [8]
  Kill rate in % after 5 days: 100%
Lucilia cuprina larvae
  Kill rate in % after 2 days: 100%

## O=C1C=C(N(Cc2cnc(Cl)c(F)c2)C2CC2)CO1 [Example 26]
[5]
  Kill rate in % after 2 days: 60%
